Consider two molecules from ChEMBL document CHEMBL3593183, “Polycyclic Polyprenylated Xanthones from Symphonia globulifera: Isolation and Biomimetic Electrosynthesis” (J Nat Prod, 2015).

In this experiment the test system is HCT-116. Put plainly: Cytotoxicity against human HCT116 cells after 72 hrs by MTS assay. The note with it: HCT-116, 72 h. In kind it is functional, cell-based.

Molecule `CC(C)=CCC[C@]1(C)[C@@H](CC=C(C)C)C[C@@]2(CC=C(C)C)C(=O)c3c(oc4cc(O)c(O)cc4c3=O)[C@]1(CC=C(C)C)C2=O` gave an IC50 of 8 µM. The value for `CC(C)=CCC[C@]1(C)[C@@H](CC=C(C)C)C[C@]2(CC=C(C)C)C(=O)[C@@]1(CC=C(C)C)C(=O)c1c2oc2cc(O)c(O)cc2c1=O` was 3 µM.
